From patent publication US20070191935A1, “Drug Delivery Stent with Extended In Vivo Drug Release” (Conor Medsystems, Inc., priority 2006, published 2007)

What was measured:
[1] = in vivo paclitaxel release from stent (explanted stents, total drug load by HPLC)
Text: The measurement of in vivo paclitaxel release from a stent can be performed according to the following Example.
Stents are implanted in a porcine model and explanted at selected time points by removing the entire artery section. The expanded stents are labeled and frozen. The tissue is removed from the stent by slicing the tissue on the outside of the stent lengthwise, inverting the tissue, and removing the tissue by cutting and turning the tissue inside out. The stent may still be covered by a tough elastic membrane which is then removed by splitting the membrane and peeling it off the stent. For longer time points, there will also be a tub of tissue inside the stent. This tube is separated from the stent with tweezers, turned inside out and pulled out of the stent.
The elution rates of drug from the examples are determined in a standard sink condition experiment.
The total drug load (TDL) of paclitaxel from a stent is determined by extracting all the polymer and drug from the stent in a solvent such as dimethyl sulfoxide (DMSO) or acetonitrile. The amount of paclitaxel in a solution sample is determined by High Pressure Liquid Chromatography (HPLC).
The in vivo release kinetic (RK) for paclitaxel from a stent is determined by running the TDL for multiple explanted time points. The TDL for the explanted samples is subtracted from the TDL of an unimplanted stent to determine the amount of paclitaxel released at each of the explanted time points.

[2] = test system: in stent neointimal proliferation; assay: clinical trials, in stent neointimal proliferation; details: in vivo release greater than 60 days from stent

CC(=O)O[C@H]1C(=O)[C@@]2(C)[C@H]([C@H](OC(=O)c3ccccc3)[C@]3(O)C[C@H](OC(=O)[C@H](O)[C@@H](NC(=O)c4ccccc4)c4ccccc4)C(C)=C1C3(C)C)[C@]1(OC(C)=O)CO[C@@H]1C[C@@H]2O [paclitaxel]
in vivo release of the paclitaxel on the stent in the first 30 days after implantation ([1]; first 30 days after implantation): not more than 40% | complete release of the entire dose of paclitaxel loaded on the stent ([1]; in vivo): ≤ 8 months | time until all the drug loaded on the stent is released ([1]; in vivo, FIG. 4): 90 to 180 days | release rate after day one ([1]; in vivo, after day one, continues for up to about 90 days): under 0.1 μg per day | in stent neointimal proliferation, longer in vivo release vs more rapid release of the same dosage [2]: lower in stent neointimal proliferation than the more rapid release of the same dosage
